In patent US20150018411A1, “COMPOUNDS AS PPAR BETA/DELTA INHIBITORS FOR TREATING PPAR BETA/DELTA-MEDIATED DISEASES” (PHILIPPS-UNIVERSITAT MARBURG, priority 2011, published 2015):
“Also recorded” adds a separate entry of the source.

Legend:
GST-PPAR beta/delta LBD = molecular target: T1, GST-PPAR beta/delta LBD (Homo sapiens, UniProt Q03181); test: Competitive in vitro ligand binding, TR-FRET, displacement of Fluormone Pan-PPAR-Green; conditions: fluorescence ratio 520 nm/495 nm
T1 construct: GST-PPAR beta/delta LBD (GST=glutathione S-transferase); purchased Invitrogen, Darmstadt, Germany
T1 sequence (Q03181 211-439 limits assumed): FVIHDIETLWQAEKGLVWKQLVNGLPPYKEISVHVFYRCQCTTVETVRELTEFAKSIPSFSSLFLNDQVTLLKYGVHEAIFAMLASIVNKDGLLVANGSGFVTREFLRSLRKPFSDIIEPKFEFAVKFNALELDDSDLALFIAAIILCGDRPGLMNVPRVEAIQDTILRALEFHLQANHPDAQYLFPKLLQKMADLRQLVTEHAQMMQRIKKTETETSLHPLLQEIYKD
Protocol: FIG. 1: Competitive in vitro ligand binding to PPAR beta/delta. • The displacement of ligand Fluormone® Pan-PPAR Green from recombinant GST-PPAR beta/delta ligand binding domain (LBD) by the substances of the present invention comparative compound (CC) 2, compound 1 (A), compound 2 (B), and compound 3 (C), compound 4 (D), compound 5 (E) is determined by TR-FRET analysis. Shown is the ratio of fluorescence intensity at 520 nm (fluorescein emission, excited by terbium emission) and 495 nm (terbium emission). All data points represent average values of triplicates (+/−standard deviation).
A) Competitive ligand-binding of the substances of this invention was measured in vitro using time-resolved fluorescence resonance energy transfer (TR-FRET) by competition with the commercially available fluorescent Fluormone® Pan-PPAR-Green for binding to the fusion protein GST-PPAR beta/delta LBD (GST=glutathione S-transferase; LBD=ligand binding domain) (Invitrogen, Darmstadt, Germany) in a VICTOR3V Multilabel Counter (WALLAC 1420; PerkinElmer Life and Analytical Sciences, Rodgau, Germany). The measurement was performed in 100 mM KC, 20 mM Tris pH 7.9, 0.01% Triton X100 and 1 μg/μL bovine serum albumin. GST is known to the expert in the field as suitable fusion partner for proteins. For this purpose, the ratio of fluorescence intensities at 520 nm (fluorescein emission excited by terbium emission) and at 495 nm (terbium emission) is determined.

PPAR beta/delta = molecular target: T2, PPAR beta/delta (Homo sapiens, UniProt Q03181); test: Agonist-induced transcriptional activity, luciferase reporter in WPMY-1 cells; assay type: cell-based; conditions: human WPMY-1 myofibroblasts, 500 nM substance, 500 nM agonist L165041
T2 construct: expressed in transfected cells; host or cells: WPMY-1 human myofibroblasts, transient transfection with PEI
T2 sequence (Q03181 1-441): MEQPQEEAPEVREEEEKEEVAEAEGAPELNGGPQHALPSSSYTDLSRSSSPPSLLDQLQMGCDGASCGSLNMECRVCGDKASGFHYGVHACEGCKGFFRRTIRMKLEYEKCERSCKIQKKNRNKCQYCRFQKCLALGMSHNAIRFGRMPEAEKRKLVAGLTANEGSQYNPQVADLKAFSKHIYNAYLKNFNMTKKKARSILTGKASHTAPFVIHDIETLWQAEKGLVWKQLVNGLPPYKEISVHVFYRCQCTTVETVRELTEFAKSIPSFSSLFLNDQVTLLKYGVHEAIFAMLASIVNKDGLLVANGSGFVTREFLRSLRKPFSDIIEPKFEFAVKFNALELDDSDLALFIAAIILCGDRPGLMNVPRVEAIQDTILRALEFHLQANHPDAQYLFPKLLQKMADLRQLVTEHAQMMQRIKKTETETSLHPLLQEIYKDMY
Protocol: FIG. 4: Effect of the substances of this invention comparative compound (CC) 2, compound 1, compound 5, compound 2 and compound 3 on the agonist-induced transcriptional activity of PPAR subtypes alpha (A), beta/delta (B) and gamma (C). • WPMY-1 cells are transiently transfected with a luciferase reporter plasmid. Four hours after transfection, cells are treated for 48 hours with the respective antagonist (500 nM), followed by a treatment with 300 nM of PPAR alpha agonist GW7647 (A), 500 nM of PPAR beta/delta agonist L165041 (B) or 300 nM of PPAR gamma agonist GW1929 (C). The relative induction is represented by the luciferase activity of the agonist-treated transfected cells in relation to solvent-treated transfected cells. Asterisks (**, *) indicate significant differences to untreated cells (after t-test; **: p<0.01; *: p<0.05). GW7647 is commercially available from Sigma-Aldrich (Steinheim, Germany). L165041 and GW1929 can be obtained from Biozol (Eching, Germany).
D) The influence of substances of this invention on the agonist-induced transcriptional activity of PPAR subtypes alpha, beta/delta or gamma is determined in WPMY-1 myofibroblasts transfected transiently with a luciferase reporter plasmid (LexA system) using polyethyleneimine (PEI) according to a method known to the expert. As agonists, substances GW7647 for PPAR alpha or L165041 for PPAR beta/delta or GW1929 for PPAR gamma known to the expert are used. WPMY-1 myofibroblast cells are initially cultured for example in a 12-well plate in DMEM medium (DMEM: Dulbecco's Modified Eagle Medium) according to a method known to the expert and to a confluence of 70% to 80%, and subsequently transfected with 2.5 μg of plasmid-DNA containing the luciferase reporter plasmid, expression plasmids for the respective PPAR subtypes and the Renilla-luciferase plasmid pRL-SV40 (Promega, Mannheim, Germany), and 2.5 μl PEI (1:1000 dilution, pH 7). Four hours after transfection, the cells are treated for 48 hours with 500 nM of the substances of this invention, and 24 later with 300 nM (GW7647 or GW1929, respectively) or 500 nM (L165041) of the respective agonist at 37° C. and 5% CO2 in an incubator. The luciferase assay is performed 48 hours after the first treatment according to the commercial method of the “dual-well-system” (pjk GmbH, Kleinblittersdorf, Germany), whereby for a normalization, not only the luciferase-, but also the Renilla activity is measured. Cells are initially lysed for this measurement, and 20 μl of the lysate is transferred into a white 96-well plate (Fisher Scientific, Hamburg, Germany). […] Mean values and standard deviation are calculated from values of three independent measurements.

| SMILES | competition with Fluormone Pan-PPAR-Green for binding to GST-PPAR beta/delta LBD (GST-PPAR beta/delta LBD) | agonist-induced transcriptional activity of PPAR beta/delta (luciferase induction) (PPAR beta/delta) |
| --- | --- | --- |
| CCCCCCNc1ccc(NS(=O)(=O)c2ccsc2C(=O)OC)c(OC)c1 [compound 1, methyl 3-(N-(4-(hexylamino)-2-methoxyphenyl)sulfamoyl)thiophene-2-carboxylate] | significant competition efficacy; also recorded: significant competition efficiency | inhibited in a PPAR subtype-specific manner |
| CCCCCCNc1ccc(NS(=O)(=O)c2ccsc2C(=O)OC)cc1OC [compound 2, methyl 3-(N-(4-(hexylamino)-3-methoxyphenyl)sulfamoyl)thiophene-2-carboxylate] | significant competition efficacy; also recorded: significant competition efficiency | inhibited in a PPAR subtype-specific manner |
| COC(=O)c1sccc1S(=O)(=O)Nc1ccc(NC(C)(C)C)cc1OC [compound 5, methyl 3-(N-(4-(tert-butylamino)-2-methoxyphenyl)sulfamoyl)thiophene-2-carboxylate] | significant competition efficacy; also recorded: significant competition efficiency | inhibited in a PPAR subtype-specific manner |
